A value given as a limit tells only on which side of the number the result lay.

For orientation: IC50 means the midpoint of a concentration-inhibition curve. Higher therefore signals lower potency.

Assay [1] has as its target T1, human 20S proteasome (Homo sapiens, UniProt P28074).
T1 construct: purchased Boston Biochem
Nature of the assay: 20S Proteasome Assay. Type of assay: biochemical. Conditions: Ac-WLA-AMC substrate 15 μM, human PA28 activator 12 nM, human 20S proteasome 0.25 nM, 37° C., pH7.4.

The target in assay [2] is human 20S proteasome (Homo sapiens, UniProt P28072+P28074+Q99436). Nature of the assay: Proteasome Inhibition Kinetics (enzyme progress curves). In kind it is biochemical. As to conditions: human 20S proteasome 0.25 nM activated with 0.01% SDS, 37° C.; half-life determined from koff; read-out: dissociation half-life t1/2. The procedure: Enzyme kinetic parameters including dissociation constants and half lives were determined by analysis of enzyme progress curves as follows:
Proteasome inactivation measurements were obtained by monitoring individual progress curves for the hydrolysis of the site-specific fluorogenic 7-amido-4-methylcoumarin (AMC)-labeled peptide substrates (β5, Suc-LLVY-AMC; β2, Z-VLR-AMC, and β1, Z-LLE-AMC) at different inhibitor concentrations. Cleavage of the fluorogenic peptide was continuously monitored as a change in the fluorescence emission at 460 nm (λex=360 nm) and plotted as a function of time. All assays were performed in cuvettes with 2 mL of 50 mM HEPES (pH 7.5), 0.5 mM EDTA, at 37±0.2° C., and with continuous stirring. The concentrations of substrates varied from 10 to 25 μM (<½ KM). The concentration of human 20S proteasome was 0.25 nM and was activated with 0.01% SDS. The rate constant, kobs, describing the conversion from the initial velocity to the steady state velocity, were estimated by nonlinear least-squares regression analysis of the individual progress curves using the equation for time-dependent or slow-binding inhibition:
[formula] where F is fluorescence, vi and vs are the initial and steady state velocities of the reaction in the presence of inhibitor, and t is time. A plot of kobs as a function of [I] was made to obtain kon from the slope of the linear fit of the data. The apparent dissociation constant, K^appii, was determined by nonlinear least-fit of the fractional velocity, vs/vo, as a function of [I], were vs is the steady state value obtained from the time-dependent or slow-binding equation and vo is the initial velocity in the absence of inhibitor: […]
The dissociation constant Ki, was calculated from the apparent Ki using the following expression: […]
The off rate, koff, was mathematically calculated from the above determined parameters using the following relationship:
The half-life was then determined from the koff value using the following relationship: […]

Turning to `O=C(N[C@@H](CC1CCC1)B(O)O)[C@H](Cc1ccccc1)NS(=O)(=O)c1ccc(Oc2ccccn2)cc1` [Compound 41, ((1R)-2-cyclobutyl-1-{[(2S)-3-phenyl-2-({[4-(pyridin-2-yloxy)phenyl]sulfonyl}amino)propanoyl]amino}ethyl)boronic acid], the half-inhibitory concentration (IC50) against human 20S proteasome [1] was less than 0.05 µM. Further, the residence time on human 20S proteasome [2] was less than 10 min. For `CN1CCOc2ccc(S(=O)(=O)N[C@@H](Cc3ccccc3)C(=O)N[C@@H](CC3CCC3)B(O)O)cc21` [Compound 20, {(1R)-2-cyclobutyl-1-[((2S)-2-{[(4-methyl-3,4-dihydro-2H-1,4-benzoxazin-6-yl)sulfonyl]amino}-3-phenylpropanoyl)amino]ethyl}boronic acid] the same measures were less than 0.05 µM and less than 10 min.

Turning to `O=C(N[C@@H](Cc1ccccc1)C(=O)N[C@@H](CC1CCC1)B(O)O)c1cnccn1` [Compound 17, [(1R)-2-cyclobutyl-1-({(2S)-3-phenyl-2-[(pyrazin-2-ylcarbonyl)amino]propanoyl}amino)ethyl]boronic acid], at human 20S proteasome [1], the IC50 was less than 0.05 µM. Moreover, the residence time on human 20S proteasome [2] lay within 10 to 60 min.

As to `O=C(N[C@@H](CC1CCC1)B(O)O)[C@H](Cc1ccccc1)NS(=O)(=O)c1ccc(Oc2ccncc2)cc1` [Compound 43, ((1R)-2-cyclobutyl-1-{[(2S)-3-phenyl-2-({[4-(pyridin-4-yloxy)phenyl]sulfonyl}amino)propanoyl]amino}ethyl)boronic acid], the IC50 against human 20S proteasome [1] was less than 0.05 µM. The residence time at human 20S proteasome [2] is less than 10 min.

`O=C(N[C@@H](Cc1ccccc1)C(=O)N[C@@H](CC1CCC1)B(O)O)c1cccnc1Oc1ccccc1` [Compound 2, {(1R)-2-cyclobutyl-1-[((2S)-2-{[(2-phenoxypyridin-3-yl)carbonyl]amino}-3-phenylpropanoyl)amino]ethyl}boronic acid] returned a half-maximal inhibitory concentration (IC50) on human 20S proteasome [1] of less than 0.05 µM. The residence time on human 20S proteasome [2] is 10 to 60 min.

On to `O=C(N[C@@H](CC1CCC1)B(O)O)[C@H](Cc1ccccc1)NS(=O)(=O)c1cc(Cl)ccc1Cl` [Compound 35, {(1R)-2-cyclobutyl-1-[((2S)-2-{[(2,5-dichlorophenyl)sulfonyl]amino}-3-phenylpropanoyl)amino]ethyl}boronic acid], for which the IC50 against human 20S proteasome [1] is less than 0.05 µM. For the same compound, the residence time on human 20S proteasome [2] was less than 10 min. Consider `O=C(N[C@@H](CC1CCC1)B(O)O)[C@H](Cc1ccccc1)NS(=O)(=O)c1ccc2ccccc2c1` [Compound 1, [(1R)-2-cyclobutyl-1-({(2S)-2-[(2-naphthylsulfonyl)amino]-3-phenylpropanoyl}amino)ethyl]boronic acid], for which, at human 20S proteasome [1], the IC50 is less than 0.05 µM. On human 20S proteasome [2], the residence time is less than 10 min.

`O=C(N[C@@H](CC1CCC1)B(O)O)[C@H](Cc1ccccc1)NS(=O)(=O)c1ccc(Oc2cccnc2)cc1` [Compound 45, ((1R)-2-cyclobutyl-1-{[(2S)-3-phenyl-2-({[4-(pyridin-3-yl-oxy)phenyl]sulfonyl}amino)propanoyl]amino}ethyl)boronic acid]: the IC50 at human 20S proteasome [1] was less than 0.05 µM. On human 20S proteasome [2], the residence time is less than 10 min. Compound `CC(=O)N[C@@H](CCc1ccccc1)C(=O)N[C@@H](Cc1ccccc1)C(=O)N[C@@H](CC1CCC1)B1O[C@@H]2C[C@@H]3C[C@@H](C3(C)C)[C@]2(C)O1` [Compound 16, (2S)-2-(acetylamino)-N-[(1S)-1-benzyl-2-({(1R)-2-cyclobutyl-1-[(3aS,4S,6S,7aR)-3a,5,5-trimethylhexahydro-4,6-methano-1,3,2-benzodioxaborol-2-yl]ethyl}amino)-2-oxoethyl]-4-phenylbutanamide] displayed a 50% inhibitory concentration (IC50) on human 20S proteasome [1] of less than 0.05 µM. Turning to `O=C(N[C@@H](CC1CCC1)B(O)O)[C@H](Cc1ccccc1)NS(=O)(=O)c1ccc2ncsc2c1` [Compound 48, [(1R)-1-({(2S)-2-[(1,3-benzothiazol-6-ylsulfonyl)amino]-3-phenylpropanoyl}-amino)-2-cyclobutylethyl]boronic acid], on human 20S proteasome [1], the concentration for half-maximal inhibition (IC50) is less than 0.05 µM. `CC1(C)[C@@H]2C[C@H]3OB([C@H](CC4CCC4)NC(=O)[C@H](Cc4ccccc4)NS(=O)(=O)c4cccnc4)O[C@@]3(C)[C@H]1C2` [Compound 15, (2S)-N-{(1R)-2-cyclobutyl-1-[(3aS,4S,6S,7aR)-3a,5,5-trimethylhexahydro-4,6-methano-1,3,2-benzodioxaborol-2-yl]ethyl}-3-phenyl-2-[(pyridin-3-ylsulfonyl)amino]propanamide] yielded an IC50 at human 20S proteasome [1] of 0.05 to 0.15 µM. For `O=C(N[C@@H](CC1CCC1)B(O)O)[C@H](Cc1ccccc1)NS(=O)(=O)c1ccc(-c2cnco2)cc1` [Compound 36, ((1R)-2-cyclobutyl-1-{[(2S)-2-({[4-(1,3-oxazol-5-yl)phenyl]sulfonyl}amino)-3-phenylpropanoyl]amino}ethyl)boronic acid], at human 20S proteasome [1], the IC50 was less than 0.05 µM. Moreover, at human 20S proteasome [2], the residence time was less than 10 min.

At human 20S proteasome [1], `O=C(N[C@@H](Cc1ccccc1)C(=O)N[C@@H](CC1CCC1)B(O)O)c1cc(Cl)ccc1Cl` [Compound 6, [(1R)-2-cyclobutyl-1-({(2S)-2-[(2,5-dichlorobenzoyl)amino]-3-phenylpropanoyl}amino)ethyl]boronic acid] came in with an IC50 of less than 0.05 µM. The residence time on human 20S proteasome [2] is 10 to 60 min. As for `O=C(N[C@@H](Cc1ccccc1)C(=O)N[C@@H](CC1CCC1)B(O)O)c1cccc(Oc2ccccc2)c1` [Compound 7, [(1R)-2-cyclobutyl-1-({(2S)-2-[(3-phenoxybenzoyl)amino]-3-phenylpropanoyl}amino)ethyl]boronic acid], at human 20S proteasome [1], the IC50 is less than 0.05 µM.

With `CC1(C)[C@@H]2C[C@H]3OB([C@H](CC4CCC4)NC(=O)[C@H](Cc4ccccc4)NS(=O)(=O)c4ccc(Oc5ccccc5)nc4)O[C@@]3(C)[C@H]1C2` [Compound 24, (2S)-N-{(1R)-2-cyclobutyl-1-[(3aS,4S,6S,7aR)-3a,5,5-trimethylhexahydro-4,6-methano-1,3,2-benzodioxaborol-2-yl]ethyl}-2-{[(6-phenoxypyridin-3-yl)sulfonyl]amino}-3-phenylpropanamide], on human 20S proteasome [1], the concentration for half-maximal inhibition (IC50) is less than 0.05 µM.

With `O=C(N[C@@H](CC1CCC1)B(O)O)[C@H](Cc1ccccc1)NS(=O)(=O)c1cccc2cnccc12` [Compound 47, [(1R)-2-cyclobutyl-1-({(2S)-2-[(isoquinolin-5-ylsulfonyl)amino]-3-phenylpropanoyl}amino)ethyl]boronic acid], the concentration for half-maximal inhibition (IC50) on human 20S proteasome [1] fell in the range of 0.05 to 0.15 µM. The same measure, in the same setting: with `O=C(N[C@@H](Cc1ccccc1)C(=O)N[C@@H](CC1CCC1)B(O)O)c1ccc2nc(-c3ccccc3)[nH]c2c1` [Compound 18, {(1R)-2-cyclobutyl-1-[((2S)-3-phenyl-2-{[(2-phenyl-1H-benzimidazol-6-yl)carbonyl]amino}propanoyl)amino]ethyl}boronic acid] the figure was less than 0.05 µM.

The values above are taken from patent US9771381B2, “Derivatives of 1-amino-2-cyclobutylethylboronic acid” (Millennium Pharmaceuticals, Inc., priority 2008, dated 2017).
